{"source": "patent US12691182B2", "about": "“Maytansinoid derivatives, conjugates thereof, and methods of use” (priority 2016, dated 2026)", "type_in_all_cases": "cell-based", "key": {"[1]": {"tested_on": "Ovcar3 (Muc16+) cells", "test": "In vitro cytotoxicity assay, Ovcar3 cells (CCK8 viability)", "conditions": "naked payload, 3 days; for Ovcar3 % kill: % kill reported for the highest dose; for IC50: CCK8", "description": "(§1) In this Example, the ability of various antibody-drug conjugates and naked payloads to kill antigen-expressing tumor cells in vitro was assessed.\n(§2) Ovcar3 (Muc16+) cells were seeded in 96 well plates at 3000 cells per well in complete growth media and grown overnight. For cell viability curves, serially diluted conjugates or naked payloads were added to the cells at final concentrations ranging from 100 nM to 5 pM and incubated for 3 days. To measure viability, cells were incubated with CCK8 (Dojindo) for the final 2 hours and the absorbance at 450 nm (OD450) was determined on a Victor (Perkin Elmer). Background OD450 levels determined from digitonin (40 nM) treated cells were subtracted from all wells and viability is expressed as a percentage of the untreated controls. IC50 values were determined from a four-parameter logistic equation over a 10-point response curve (GraphPad Prism). […] All curves and IC50 values are corrected for payload equivalents. The plot of % Cell Viability vs. Log 10 [M]\n(§3) All IC50s are expressed in nM concentration and % kill is reported for the highest dose. All curves and IC50 values are corrected for payload equivalents. The plot of % Cell Viability vs. Log 10 [M]"}, "[2]": {"tested_on": "SKBR3 (Her2+) cells", "test": "In vitro cytotoxicity assay, SKBR3 cells (CCK8 viability)", "conditions": "naked payload, SKBr-3 cells, 3 days; for SKBr-3 % kill: % kill reported for the highest dose; for IC50: CCK8", "description": "as §1\nas §2, with “SKBR3 (Her2+)” for “Ovcar3 (Muc16+)”, “8000” for “3000”\nas §3"}, "[3]": {"tested_on": "C4-2 (STEAP2+) cells", "test": "In vitro cytotoxicity assay, C4-2 cells (CellTiter-Glo viability)", "conditions": "naked payload, 5 days; for C4-2 % kill: % kill reported for the highest dose; for IC50: CellTiter-Glo", "description": "as §1\nC4-2 (STEAP2+) cells were seeded in 96 well plates at 4000 cells per well in complete growth media and grown overnight. For cell viability curves, serially diluted conjugates or naked payloads were added to the cells at final concentrations ranging from 100 nM to 5 pM and incubated for 5 days. To measure viability, cells were incubated with CellTiter-Glo reagents for 5 minutes and luminescence was determined on a Victor plate reader (PerkinElmer). IC50 values were determined from a four-parameter logistic equation over a 10-point response curve (GraphPad Prism).\nas §3"}}}
{"compound": "COc1cc2cc(c1Cl)N(C)C(=O)CC(OC(=O)Nc1ccc(N)cc1)C1(C)OC1C(C)C1CC(O)(NC(=O)O1)C(OC)C=CC=C(C)C2", "note": "(stereo not drawn) [Compound 8, Maytan-3-O-carbamoyl-N-(4-aminobenzene)]", "values": [{"measurement": "Ovcar3 % kill", "setting": "[1]", "value": "** (** indicates % kill greater than, or equal to, 85 and less than 90)"}, {"measurement": "IC50", "setting": "[1]", "value": "1 to 10", "unit": "nM"}, {"measurement": "SKBr-3 % kill", "setting": "[2]", "value": "**** (**** indicates % kill greater than, or equal to, 95 and less than 99)"}, {"measurement": "IC50", "setting": "[2]", "value": "1 to 10", "unit": "nM"}, {"measurement": "C4-2 % kill", "setting": "[3]", "value": "**** (**** indicates % kill greater than, or equal to, 95 and less than 99)"}, {"measurement": "IC50", "setting": "[3]", "value": "≥ 10", "unit": "nM"}]}
{"compound": "COc1cc2cc(c1Cl)N(C)C(=O)CC(OC(=O)Nc1ccc(N)cc1Cl)C1(C)OC1C(C)C1CC(O)(NC(=O)O1)C(OC)C=CC=C(C)C2", "note": "(stereo not drawn) [Compound 17, Maytan-3-O-carbamoyl-N-(2-chloro-4-amino)benzene]", "values": [{"measurement": "Ovcar3 % kill", "setting": "[1]", "value": "*** (*** indicates % kill greater than, or equal to, 90 and less than 95)"}, {"measurement": "IC50", "setting": "[1]", "value": "0.001 to 0.01", "unit": "nM"}, {"measurement": "SKBr-3 % kill", "setting": "[2]", "value": "***** (***** indicates % kill greater than, or equal to, 99)"}, {"measurement": "IC50", "setting": "[2]", "value": "0.01 to 0.1", "unit": "nM"}, {"measurement": "C4-2 % kill", "setting": "[3]", "value": "**** (**** indicates % kill greater than, or equal to, 95 and less than 99)"}, {"measurement": "IC50", "setting": "[3]", "value": "0.1 to 1", "unit": "nM"}]}
{"compound": "COc1cc2cc(c1Cl)N(C)C(=O)CC(OC(=O)Nc1ccc(N)c(Cl)c1)C1(C)OC1C(C)C1CC(O)(NC(=O)O1)C(OC)C=CC=C(C)C2", "note": "(stereo not drawn) [Compound 30a, Maytan-3-O-carbamoyl-N-(3-chloro-4-amino)benzene]", "values": [{"measurement": "Ovcar3 % kill", "setting": "[1]", "value": "*** (*** indicates % kill greater than, or equal to, 90 and less than 95)"}, {"measurement": "IC50", "setting": "[1]", "value": "0.1 to 1", "unit": "nM"}, {"measurement": "SKBr-3 % kill", "setting": "[2]", "value": "**** (**** indicates % kill greater than, or equal to, 95 and less than 99)"}, {"measurement": "IC50", "setting": "[2]", "value": "0.1 to 1", "unit": "nM"}, {"measurement": "C4-2 % kill", "setting": "[3]", "value": "***** (***** indicates % kill greater than, or equal to, 99)"}, {"measurement": "IC50", "setting": "[3]", "value": "1 to 10", "unit": "nM"}]}
{"compound": "COc1cc2cc(c1Cl)N(C)C(=O)C[C@H](OC(=O)Nc1ccc(N)cc1C)[C@]1(C)O[C@H]1[C@H](C)[C@@H]1C[C@@](O)(NC(=O)O1)[C@H](OC)/C=C/C=C(\\C)C2", "note": "[Compound 30c, Maytan-3-O-carbamoyl-N-(2-methyl-4-amino)benzene]", "values": [{"measurement": "Ovcar3 % kill", "setting": "[1]", "value": "** (** indicates % kill greater than, or equal to, 85 and less than 90)"}, {"measurement": "IC50", "setting": "[1]", "value": "1 to 10", "unit": "nM"}, {"measurement": "SKBr-3 % kill", "setting": "[2]", "value": "*** (*** indicates % kill greater than, or equal to, 90 and less than 95)"}, {"measurement": "IC50", "setting": "[2]", "value": "1 to 10", "unit": "nM"}, {"measurement": "C4-2 % kill", "setting": "[3]", "value": "** (** indicates % kill greater than, or equal to, 85 and less than 90)"}, {"measurement": "IC50", "setting": "[3]", "value": "≥ 10", "unit": "nM"}]}
{"compound": "COc1cc(NC(=O)OC2CC(=O)N(C)c3cc(cc(OC)c3Cl)CC(C)=CC=CC(OC)C3(O)CC(OC(=O)N3)C(C)C3OC23C)ccc1N", "note": "(stereo not drawn) [Compound 30j, Maytan-3-O-carbamoyl-N-(3-methoxy-4-amino)benzene]", "values": [{"measurement": "Ovcar3 % kill", "setting": "[1]", "value": "** (** indicates % kill greater than, or equal to, 85 and less than 90)"}, {"measurement": "IC50", "setting": "[1]", "value": "1 to 10", "unit": "nM"}, {"measurement": "SKBr-3 % kill", "setting": "[2]", "value": "**** (**** indicates % kill greater than, or equal to, 95 and less than 99)"}, {"measurement": "IC50", "setting": "[2]", "value": "0.1 to 1", "unit": "nM"}, {"measurement": "C4-2 % kill", "setting": "[3]", "value": "*** (*** indicates % kill greater than, or equal to, 90 and less than 95)"}, {"measurement": "IC50", "setting": "[3]", "value": "≥ 10", "unit": "nM"}]}
{"compound": "COc1cc2cc(c1Cl)N(C)C(=O)CC(OC(=O)Nc1ccc(N)c(C(F)(F)F)c1)C1(C)OC1C(C)C1CC(O)(NC(=O)O1)C(OC)C=CC=C(C)C2", "note": "(stereo not drawn) [Compound 30l, Maytan-3-O-carbamoyl-N-(3-trifluoromethyl-4-amino)benzene]", "values": [{"measurement": "Ovcar3 % kill", "setting": "[1]", "value": "*** (*** indicates % kill greater than, or equal to, 90 and less than 95)"}, {"measurement": "IC50", "setting": "[1]", "value": "0.1 to 1", "unit": "nM"}, {"measurement": "SKBr-3 % kill", "setting": "[2]", "value": "***** (***** indicates % kill greater than, or equal to, 99)"}, {"measurement": "IC50", "setting": "[2]", "value": "0.1 to 1", "unit": "nM"}, {"measurement": "IC50", "setting": "[3]", "value": "≥ 10", "unit": "nM"}]}
{"compound": "COc1cc2cc(c1Cl)N(C)C(=O)C[C@H](OC(=O)Nc1ccc(N)cc1Br)[C@]1(C)O[C@H]1[C@H](C)[C@@H]1C[C@@](O)(NC(=O)O1)[C@H](OC)/C=C/C=C(\\C)C2", "note": "[Compound 30m, Maytan-3-O-carbamoyl-N-(2-bromo-4-amino)benzene]", "values": [{"measurement": "Ovcar3 % kill", "setting": "[1]", "value": "** (** indicates % kill greater than, or equal to, 85 and less than 90)"}, {"measurement": "IC50", "setting": "[1]", "value": "0.001 to 0.01", "unit": "nM"}, {"measurement": "SKBr-3 % kill", "setting": "[2]", "value": "***** (***** indicates % kill greater than, or equal to, 99)"}, {"measurement": "IC50", "setting": "[2]", "value": "0.01 to 0.1", "unit": "nM"}, {"measurement": "C4-2 % kill", "setting": "[3]", "value": "***** (***** indicates % kill greater than, or equal to, 99)"}, {"measurement": "IC50", "setting": "[3]", "value": "0.01 to 0.1", "unit": "nM"}]}
{"compound": "Maytan-3-O-carbamoyl-N-(2-methoxy-4-amino)benzene [Compound 30k]", "values": [{"measurement": "Ovcar3 % kill", "setting": "[1]", "value": "*** (*** indicates % kill greater than, or equal to, 90 and less than 95)"}, {"measurement": "IC50", "setting": "[1]", "value": "0.1 to 1", "unit": "nM"}, {"measurement": "SKBr-3 % kill", "setting": "[2]", "value": "***** (***** indicates % kill greater than, or equal to, 99)"}, {"measurement": "IC50", "setting": "[2]", "value": "1 to 10", "unit": "nM"}, {"measurement": "IC50", "setting": "[3]", "value": "≥ 10", "unit": "nM"}]}
{"compound": "Maytan-3-O-carbamoyl-N-(4-trifluoromethoxy-2-amino)benzene [Compound 30n]", "values": [{"measurement": "SKBr-3 % kill", "setting": "[2]", "value": "***** (***** indicates % kill greater than, or equal to, 99)"}, {"measurement": "IC50", "setting": "[2]", "value": "1 to 10", "unit": "nM"}, {"measurement": "C4-2 % kill", "setting": "[3]", "value": "***** (***** indicates % kill greater than, or equal to, 99)"}, {"measurement": "IC50", "setting": "[3]", "value": "≥ 10", "unit": "nM"}]}
{"compound": "Maytan-3-O-carbamoyl-N-(6-methyl-3-amino)benzene [Compound 30e]", "values": [{"measurement": "SKBr-3 % kill", "setting": "[2]", "value": "*** (*** indicates % kill greater than, or equal to, 90 and less than 95)"}, {"measurement": "IC50", "setting": "[2]", "value": "1 to 10", "unit": "nM"}, {"measurement": "C4-2 % kill", "setting": "[3]", "value": "**** (**** indicates % kill greater than, or equal to, 95 and less than 99)"}, {"measurement": "IC50", "setting": "[3]", "value": "1 to 10", "unit": "nM"}]}
